# From patent EP4715056A1, “BIO-BASED TRANS-ACONITATE, PREPARATION METHOD THEREFOR AND USE THEREOF” (Qingdao Institute of Bioenergy and Bioprocess Technology, …, priority 2023, dated 2024)
# Test: Acid value (KOH titration)
# Type: physicochemical
# Settings: aconitate/citrate products, Table 4
# Protocol: The aconitates and citrates prepared in the above examples and comparative examples were tested for acid value, purity, chromaticity, yield, triester conversion rate, and water content. […] The mixture was neutralized with 0.02 mol·L^-1 potassium hydroxide aqueous solution until a faint pink color appears, and the consumed volume Vo was recorded. 1 g of the sample (accurate to 0.01 g) was weighed using a ground-neck conical flask, then one portion of the above neutralized solution was added. After the sample was completely dissolved, the sample was titrated with 0.02 mol·L^-1 potassium hydroxide-ethanol standard titration solution (the titration should be completed within 30 seconds) until a faint pink color appeared and persisted for 5 seconds without fading, which was considered as an end point. The consumed volume V was recorded. […] Chromatographic column: C18 column; injector: 10 µL micro-syringe; solvent: acetonitrile (HPLC grade); acquisition time: 15 min; mobile phase: 80% acetonitrile (HPLC grade) and 20% deionized water; injection volume: 1 µL; wavelength: 230 nm.
row,Structure (SMILES),Acid value
1,"CCCCOC(=O)C=C(CC(=O)OCCCC)C(=O)OCCCC [Example 19, tributyl aconitate]",0.05 KOH/g
2,"CCCCC(CC)COC(=O)C=C(CC(=O)OCC(CC)CCCC)C(=O)OCC(CC)CCCC (stereo not drawn) [Example 20, tri(2-ethylhexyl) aconitate]",0.05 KOH/g
3,"CCOC(=O)C=C(CC(=O)OCC)C(=O)OCC [Example 21, triethyl aconitate]",0.05 KOH/g
4,"CCCCOC(=O)C=C(CC(=O)OCCCC)C(=O)OCCCC [Example 23, tributyl aconitate]",0.05 KOH/g
5,"CCCCOC(=O)C=C(CC(=O)OCCCC)C(=O)OCCCC [Example 24, tributyl aconitate]",0.05 KOH/g
6,"CCCCOC(=O)C=C(CC(=O)OCCCC)C(=O)OCCCC [Example 25, tributyl aconitate]",0.05 KOH/g

# Test: Residual amounts of fat-soluble and water-soluble pigments (HPLC)
# Type: physicochemical
# Settings: aconitate/citrate products, Table 4
# Protocol: 7. Residual amounts of fat-soluble pigments and water-soluble pigments: • a high-performance liquid chromatograph (HPLC) was used, and the instrument sensitivity and stability of the detector should comply with the provisions of GB/T 16631-2008. Chromatographic column: C18 column; injector: 10 µL micro-syringe; solvent: acetonitrile (HPLC grade); acquisition time: 15 min; mobile phase: 80% acetonitrile (HPLC grade) and 20% deionized water; injection volume: 1 µL; wavelength: 230 nm.
# Test: the instrument was adjusted according to the above provisions. After the baseline was stable, 0.2 µL of the sample was injected using a micro-syringe, and the integrator or chromatographic workstation was started at the same time. A pigment concentration-integral area standard curve was established by testing the integral areas of pigments with different concentrations. When the pigment content was measured, the corresponding pigment integral area was automatically given by the instrument, and the pigment concentration was obtained by comparing with the standard curve. The ratio of the pigment concentration to the sample concentration is the pigment content.
Structure (SMILES),Residual amounts of fat-soluble pigments,Residual amounts of water-soluble pigments
"CCCCOC(=O)C=C(CC(=O)OCCCC)C(=O)OCCCC [Example 19, tributyl aconitate]",431 ppm,405 ppm
"CCCCC(CC)COC(=O)C=C(CC(=O)OCC(CC)CCCC)C(=O)OCC(CC)CCCC (stereo not drawn) [Example 20, tri(2-ethylhexyl) aconitate]",634 ppm,610 ppm
"CCOC(=O)C=C(CC(=O)OCC)C(=O)OCC [Example 21, triethyl aconitate]",385 ppm,328 ppm
"CCCCOC(=O)C=C(CC(=O)OCCCC)C(=O)OCCCC [Example 23, tributyl aconitate]",1356 ppm,842 ppm
"CCCCOC(=O)C=C(CC(=O)OCCCC)C(=O)OCCCC [Example 24, tributyl aconitate]",1386 ppm,420 ppm
"CCCCOC(=O)C=C(CC(=O)OCCCC)C(=O)OCCCC [Example 25, tributyl aconitate]",865 ppm,454 ppm

# Test: Compatibility (water value method)
# Type: physicochemical
# Settings: 2.5 g plasticizer and 25 g acetone titrated with deionized water until turbidity; Table 5
# Protocol: (§1) The aconitates and tributyl citrate prepared in the above examples and comparative examples were added as plasticizers to PVC resin to obtain PVC plastics. The PVC plastics include 100 parts of PVC resin, 35 parts of plasticizer, 2 parts of oxidized polyethylene wax, and 5 parts of octyltin maleate. The above raw materials were mixed and prepared using the same mixing process to obtain finished PVC products. The performance tests were performed on different plasticizers and the obtained PVC finished products in the above examples and comparative examples. […] Three points were selected for each group of samples, each point was tested once, and a median value was taken. • 2. […] Compatibility: tests were performed using a water value method. Since water molecules are polar, the compatibility between the plasticizer and water can characterize the compatibility between the plasticizer and polar materials (PVC, PLA, and nitrile rubber). When a certain plasticizer has good compatibility with water, it has good compatibility with PVC, and vice versa. In the experiment, 2.5 g of plasticizer and 25 g of acetone were added to a beaker, titrated with a burette filled with deionized water, and agitated while titrating until turbidity appears, and the volume of deionized water consumed was recorded. • 4. Glass transition temperature (Tg): the glass transition temperature was tested using a dynamic mechanical analyzer. Test conditions: nitrogen was taken as the carrier gas, at a test temperature range of -40 to 80°C, a heating rate of 3°C/min, and a frequency of 1 Hz.
row,Structure (SMILES),Compatibility
1,"CCCCOC(=O)C=C(CC(=O)OCCCC)C(=O)OCCCC [Example 19, tributyl aconitate]",16.7 mL
2,"CCCCC(CC)COC(=O)C=C(CC(=O)OCC(CC)CCCC)C(=O)OCC(CC)CCCC (stereo not drawn) [Example 20, tri(2-ethylhexyl) aconitate]",10.7 mL
3,"CCOC(=O)C=C(CC(=O)OCC)C(=O)OCC [Example 21, triethyl aconitate]",18.4 mL
4,"CCCCOC(=O)C=C(CC(=O)OCCCC)C(=O)OCCCC [Example 23, tributyl aconitate]",13.1 mL
5,"CCCCOC(=O)C=C(CC(=O)OCCCC)C(=O)OCCCC [Example 24, tributyl aconitate]",13.1 mL
6,"CCCCOC(=O)C=C(CC(=O)OCCCC)C(=O)OCCCC [Example 25, tributyl aconitate]",12.7 mL

# Test: Glass transition temperature (dynamic mechanical analyzer)
# Type: physicochemical
# Settings: PVC plastic with 35 parts plasticizer; -40 to 80°C, 3°C/min, 1 Hz
# Protocol: as §1
row,Structure (SMILES),Tg
1,"CCCCOC(=O)C=C(CC(=O)OCCCC)C(=O)OCCCC [Example 19, tributyl aconitate]",27.6 °C
2,"CCCCC(CC)COC(=O)C=C(CC(=O)OCC(CC)CCCC)C(=O)OCC(CC)CCCC (stereo not drawn) [Example 20, tri(2-ethylhexyl) aconitate]",42.5 °C
3,"CCOC(=O)C=C(CC(=O)OCC)C(=O)OCC [Example 21, triethyl aconitate]",28.2 °C
4,"CCCCOC(=O)C=C(CC(=O)OCCCC)C(=O)OCCCC [Example 23, tributyl aconitate]",28.4 °C
5,"CCCCOC(=O)C=C(CC(=O)OCCCC)C(=O)OCCCC [Example 24, tributyl aconitate]",28.6 °C
6,"CCCCOC(=O)C=C(CC(=O)OCCCC)C(=O)OCCCC [Example 25, tributyl aconitate]",28.2 °C

# Test: Tensile properties (GB/T 1040-2006): tensile modulus at 100%, elongation at break, elastic modulus
# Type: physicochemical
# Settings: PVC plastic with 35 parts plasticizer; 50 mm/min, 25°C
# Protocol: as §1
Structure (SMILES),Elastic modulus,Elongation at break,Tensile modulus at 100%
"CCCCOC(=O)C=C(CC(=O)OCCCC)C(=O)OCCCC [Example 19, tributyl aconitate]",74.6 MPa,260.1%,14.6 MPa
"CCCCC(CC)COC(=O)C=C(CC(=O)OCC(CC)CCCC)C(=O)OCC(CC)CCCC (stereo not drawn) [Example 20, tri(2-ethylhexyl) aconitate]",301.6 MPa,181.6%,19.7 MPa
"CCOC(=O)C=C(CC(=O)OCC)C(=O)OCC [Example 21, triethyl aconitate]",135.5 MPa,243.6%,15.8 MPa
"CCCCOC(=O)C=C(CC(=O)OCCCC)C(=O)OCCCC [Example 23, tributyl aconitate]",128.7 MPa,239.4%,15.6 MPa
"CCCCOC(=O)C=C(CC(=O)OCCCC)C(=O)OCCCC [Example 24, tributyl aconitate]",131.0 MPa,242.7%,15.7 MPa
"CCCCOC(=O)C=C(CC(=O)OCCCC)C(=O)OCCCC [Example 25, tributyl aconitate]",156.4 MPa,226.5%,17.2 MPa

# Test: Chromaticity (platinum-cobalt colorimetry)
# Type: physicochemical
# Settings: aconitate/citrate products, Table 4; colour comparison at 25°C
# Protocol: 3. Chromaticity: preparation of 500# platinum-cobalt colorimetric standard stock solution: 1.2450 g of potassium chloroplatinate and 1.0000 g of cobalt chloride were weighed, with an accuracy of 0.0002 g, the mixture was dissolved in 100 mL of hydrochloric acid, and then diluted to 1000 mL with distilled water. This solution is just the 500# colorimetric standard comparison solution.
# Preparation of colorimetric standards below 500#: different amounts of the 500# stock solution was prepared, and diluted with distilled water to the volume of a colorimetric tube to prepare colorimetric standard solutions of any number. The calculation formula is as follows: V = (N×V1)/500 [formula]
# In the formula, V is the volume of the 500# standard stock solution taken to prepare the N# colorimetric standard solution, in mL; V1 is the volume of the colorimetric tube used, in mL; and N is the number of the colorimetric standard solution to be prepared.
# Color comparison determination was performed at 25°C.
row,Structure (SMILES),Chromaticity
1,"CCCCOC(=O)C=C(CC(=O)OCCCC)C(=O)OCCCC [Example 19, tributyl aconitate]",30 Pt-Co
2,"CCCCC(CC)COC(=O)C=C(CC(=O)OCC(CC)CCCC)C(=O)OCC(CC)CCCC (stereo not drawn) [Example 20, tri(2-ethylhexyl) aconitate]",30 Pt-Co
3,"CCOC(=O)C=C(CC(=O)OCC)C(=O)OCC [Example 21, triethyl aconitate]",30 Pt-Co
4,"CCCCOC(=O)C=C(CC(=O)OCCCC)C(=O)OCCCC [Example 23, tributyl aconitate]",60 Pt-Co
5,"CCCCOC(=O)C=C(CC(=O)OCCCC)C(=O)OCCCC [Example 24, tributyl aconitate]",60 Pt-Co
6,"CCCCOC(=O)C=C(CC(=O)OCCCC)C(=O)OCCCC [Example 25, tributyl aconitate]",50 Pt-Co

# Test: Hardness (Shore hardness tester, GB/T 531-2008)
# Type: physicochemical
# Settings: PVC plastic: 100 parts PVC resin, 35 parts plasticizer, 2 parts oxidized polyethylene wax, 5 parts octyltin maleate
# Protocol: as §1, with “The PVC plastics include 100 parts of PVC resin, 35 parts of plasticizer, 2 parts of oxidized polyethylene wax, and 5 parts of octyltin maleate.” left out
row,Structure (SMILES),Hardness/Shore D
1,"CCCCOC(=O)C=C(CC(=O)OCCCC)C(=O)OCCCC [Example 19, tributyl aconitate]",41 Shore D
2,"CCCCC(CC)COC(=O)C=C(CC(=O)OCC(CC)CCCC)C(=O)OCC(CC)CCCC (stereo not drawn) [Example 20, tri(2-ethylhexyl) aconitate]",54 Shore D
3,"CCOC(=O)C=C(CC(=O)OCC)C(=O)OCC [Example 21, triethyl aconitate]",43 Shore D
4,"CCCCOC(=O)C=C(CC(=O)OCCCC)C(=O)OCCCC [Example 23, tributyl aconitate]",43 Shore D
5,"CCCCOC(=O)C=C(CC(=O)OCCCC)C(=O)OCCCC [Example 24, tributyl aconitate]",43 Shore D
6,"CCCCOC(=O)C=C(CC(=O)OCCCC)C(=O)OCCCC [Example 25, tributyl aconitate]",45 Shore D

# Test: Water content (Karl Fischer moisture meter)
# Type: physicochemical
# Settings: aconitate/citrate products, Table 4
# Excerpt: 6. Water content: a Karl Fischer moisture meter is used to test the water content (retained to two decimal places).
row,Structure (SMILES),Water content
1,"CCCCOC(=O)C=C(CC(=O)OCCCC)C(=O)OCCCC [Example 19, tributyl aconitate]",0.03%
2,"CCCCC(CC)COC(=O)C=C(CC(=O)OCC(CC)CCCC)C(=O)OCC(CC)CCCC (stereo not drawn) [Example 20, tri(2-ethylhexyl) aconitate]",0.05%
3,"CCOC(=O)C=C(CC(=O)OCC)C(=O)OCC [Example 21, triethyl aconitate]",0.02%
4,"CCCCOC(=O)C=C(CC(=O)OCCCC)C(=O)OCCCC [Example 23, tributyl aconitate]",0.03%
5,"CCCCOC(=O)C=C(CC(=O)OCCCC)C(=O)OCCCC [Example 24, tributyl aconitate]",0.02%
6,"CCCCOC(=O)C=C(CC(=O)OCCCC)C(=O)OCCCC [Example 25, tributyl aconitate]",0.03%
